# Results taken from US11806393B2, “Flavivirus peptide sequences, epitopes, and methods and uses thereof” (priority 2017, dated 2023).
# What was measured:
# [1] = test system: CD8+ T cells; experiment: IFNγ ELISPOT, ZIKV-infected Ifnar-/- HLA-A*0101 transgenic mice; assay type: cell-based, mouse; conditions: HLA-A*0101 mice; for SFC/10^6 CD8+ T cells, FSS13025: 7 days after ZIKV FSS13025; for SFC/10^6 CD8+ T cells, MR766: 7 days after ZIKV MR766; for immunodominance in IFNγ ELISPOT: immunodominant: >500 SFCs/10^6 CD8+ T cells, shared by both ZIKV strains
# Procedure: Two ZIKV strains, MR766 (Uganda, 1947) and FSS13025 (Cambodia, 2010), were obtained from the World Reference Center for Emerging Viruses and Arboviruses (WRCEVA). The mouse-adapted DENV2 strain S221 is a triple-plaque purified clone derived from DENV2 D2S1038. Both ZIKV and DENV2 were amplified in C6/36 mosquito cells, and viral titers were measured using baby hamster kidney (BHK)-21 cell-based focus forming assay (FFA). For epitope screening, 5-week old mice (female or male) were infected retro-orbitally (R.O.) with either 1×102 FFU of ZIKV FSS13025 or ZIKV MR766, or 2×10^4 FFU of DENV2 S221 in 200 μl 10% FBS/PBS. Seven days after infection, CD8^+ T cells were isolated from splenocytes and used for ELISPOT assay, while the splenocytes were directly used for ICS assay. Additionally, 5-week old mice were inoculated I.P. with 2×10^3 FFU of DENV2 S221 for 4 weeks.
# CD8^+ T cells were isolated from splenocytes using magnetic bead positive selection (Miltenyi Biotec, Germany) 7 days after virus infection. 2×10^5 CD8^+ T cells were stimulated with 1×10^5 LPS-blasts loaded with 10 μg of individual peptide in 96-well flat-bottom plates (IMMOBILON™-P; Millipore, Bedford, Mass.) that were coated with anti-IFNγ mAb (clone AN18; Mabtech, Stockholm, Sweden) in triplicate. Concanavalin A (ConA) was used as positive control. After 20 hours of incubation, biotinylated anti-mouse IFNγ mAb (R4-6A2; Mabtech), followed by ABC peroxidase (Vector Laboratories, Burlingame, Calif., USA) and then 3-amino-9-ethylcarbazole (Sigma-Aldrich, St. Louis, Mo., USA) were added into the wells. […] A peptide inducing a magnitude of >500 SFCs/10^6 CD8^+ T cells was considered as an immunodominant peptide.
# The following results are with respect to FIG. 9, where IFNγ ELISPOT was performed using CD8+ T cells isolated from Ifnar^−/− HLA-B*0702 transgenic mice (a and b) and Ifnar^−/− HLA-A*0101 transgenic mice (d and e) 7 days after retro-orbital (R.O.) infection with 1×10^2 FFU of ZIKV strain FSS13025 or MR766. Two independent experiments performed in triplicate were averaged and the error bars represent the SEM. The data are expressed as the mean number of spot forming cells (SFC) per 10^6 CD8^+ T cells. The criteria for positivity were net SFC per 10^6 cells of >20, and a stimulation index of >2.0 when compared with the negative control. Dotted lines represent the cutoff value. * Indicates a positive response. All positive peptides were grouped according the corresponding ZIKV protein (c and f); white and black bars are the total IFNγ response of all identified positive peptides from an indicated protein; numbers in parentheses are the number of positive peptides in this protein. ConA denotes Concanavalin A.
# [2] = test system: CD8+ T cells; experiment: IFNγ-ELISPOT of predicted H-2b-binding ZIKV peptides; assay type: cell-based, mouse; conditions: CD8+ T cells of mice infected with MR766 or FSS13025, day 7; positive: SFC per 10^6 CD8+ T cells ≥20 and stimulation index ≥2
# Procedure: CD8^+ T cells were isolated by magnetic bead positive selection (Miltenyi Biotec, Germany). A total of 2×10^5 CD8^+ T cells were stimulated with 1×10^5 LPS-blast cells as antigen presenting cells (APCs) and 10 μg of individual ZIKV-derived peptide in 96-well flat-bottom plates (IMMOBILON™-P; Millipore, MA) coated with anti-mouse IFNγ monoclonal antibody (mAb) (clone AN18; Mabtech, Sweden) in triplicate. IFNγ-ELISPOT was performed as previously detailed (Elong Ngono et al., 2016). Positive peptides were those with a number of spot-forming cells (SFC) per 10^6 CD8^+ T cells ≥20 and a stimulation index ≥2 based on the negative control (DMSO). […]
# The following results are with reference to FIG. 3A and FIG. 3B, where five-week-old LysMCre^+IFNAR^fl/fl were infected retro-orbitally with 10^4 FFU of ZIKV MR766 or FSS13025. […] A total of 244 peptides from ZIKV strains predicted to bind H-2Kb and H-2db with high affinity were screened. Two independent experiments for each ZIKV strain (n=5 mice for each experiment) were performed in triplicate per peptide. The data are expressed as the mean of spot forming cells (SFC) per 10^6 CD8^+ T cells, and error bars are represented as SEM. One-way ANOVA was used to compare the mean of each peptide with the control (DMSO) ([…]). […] The dotted line corresponds to the average amount of IFNγ produced by MOCK mice when stimulated with positive ZIKV-derived peptides (0.19% of IFNγ+CD8^+ T cells).
Substance,"SFC/10^6 CD8+ T cells, FSS13025 [1] [SFC/10^6 CD8+ T cells]","SFC/10^6 CD8+ T cells, MR766 [1] [SFC/10^6 CD8+ T cells]",immunodominance in IFNγ ELISPOT [1],"Strains (ZIKV strain for which the peptide induced a positive T cell response, IFNγ-ELISPOT) [2]"
YLDKQSDTQY [FSS/MR-E81-90],495,258,–,–
HMCDATMSY [FSS/MR-prM40-48],288,–,–,–
ETDENRAKV [FSS/MR-E159-167],512,516,immunodominant,–
FSDLYYLTM [FSS/MR-E198-206],398,388,–,–
MTERFQEAI [FSS/MR-NS4A14-22],–,266,–,–
VTRRGNAYY [FSS-C125-prM8],–,266,–,–
ELDPPFGDSY [FSS/MR-E377-386],286,–,–,–
GLDFSDLYY [FSS/MR-E195-203],993,647,immunodominant,–
YAQMWQLLY [FSS/MR-NS5509-517],313,225,–,–
FTDPSSIAA [FSS/MR-NS3272-280],–,286,–,–
10 (SSWLWKEL) [compound 10],–,–,–,MR766
29 (VVIKNGSYV) [compound 29],–,–,–,MR766/FSS
7 (RQVMNIVSSWL) [compound 7],–,–,–,MR766
6 (RAIWYMWL) [compound 6],–,–,–,MR766
MSALEFYSY [FSS/MR-NS4B270-278],378,–,–,–
28 (VSFIFRAN) [compound 28],–,–,–,MR766/FSS
21 (IGVSNRDFV) [compound 21],–,–,–,MR766/FSS
12 (TTVSNMAEV) [compound 12],–,–,–,MR766
19 (ATMSYECPM) [compound 19],–,–,–,MR766/FSS
18 (IMVAVGLL) [compound 18],–,–,–,MR766/FSS
2 (AAGAWYVYV) [compound 2],–,–,–,MR766
DVEAWRDRY [FSS/MR-NS123-31],583,260,immunodominant,–
YLAGASLIY [FSS/MR-NS4B231-239],1646,1574,most immunodominant epitope,–
